Test results taken from patent US20230302014A1, “USES OF GLUCOCORTICOID RECEPTOR (GR) ANTAGONIST AND ANDROGEN RECEPTOR (AR) DEGRADER COMBINATIONS” (ORIC Pharmaceuticals, Inc., priority 2020, published 2023).

Columns and labels:
Type in all cases: cell-based, Human
[1] = test system: AR and GR target genes in CWR22PC cells; assay: End of study (EOS) biomarker analysis by RT-qPCR; conditions: CSS media, day 21 EOS, 0.1 nM R1881 + 1 µM ARV-110, + 30 nM dexamethasone, + 0.5 µM compound 1
Experimental: (§1) CWR22PC cells were seeded at a density of 2 × 10^5 cells/well in 6-well plates (Corning# 3516) in 2 mL of RPMI-1640 media supplemented with 10% charcoal-stripped serum (CSS) in duplicate. 24 hours later, cells were treated with 100 pM R1881, 30 nM dexamethasone, 0.5 µM compound 1, 1 µM of ARD1 or ARD2, or combinations thereof as indicated. Fresh media containing the indicated treatment was replaced every 5-7 days. Cell supernatant was collected on Day 12 and 19 and stored at -80° C. for PSA AlphaLISA assay. Cell images were taken on Day 12 and 19 using Leica DMi8 microscope (LEICA MICROSYSTEMS, INC. IL) with a 10X magnification. Cells were then trypsinized and cell numbers in each treatment group were counted three times, average counts were plotted with GraphPad Prism 8. Cell pellets were washed once with 1XPBS and then lysed in 600 µL RLT RNA lysis buffer and stored at -80° C. RNA was extracted for end of study (EOS) biomarker analysis for which the detailed procedures are described in the section RNA Extraction and RT-qPCR analysis.
(§2) Adherent cells or cell pellets harvested for mRNA analysis were first washed once with PBS and then resuspended in 600 µL of RLT lysis buffer (Qiagen Inc.) supplemented with 1% of betamercaptoethanol. RNA was extracted by QIAcube using the RNeasy Mini QIAcube kit (Qiagen#74116) according to manufacturer’s instructions. The extracted RNA samples were then quantified using a Nanodrop 8000 Spectrophotometer. RT-qPCR reactions were set up in triplicate using 3 µL of 3 ng/ µL of RNA in 7 µL of pre-mixed SensiFAST™ SYBR No-ROX One-Step Kit reagents (BIOLINE# BIO-98005). The RT-qPCR reactions were run on a Bio-Rad CFX384 Real-Time PCR System and data was plotted with GraphPad Prism 8 software.
CWR22PC cells were seeded at a density of 2 × 10^5 cells/well in 6-well plates (Corning# 3516) in 2 mL of RPMI-1640 media supplemented with 10% charcoal-stripped serum (CSS) in duplicate. […] Cells were then trypsinized and cell numbers in each treatment group were counted three times, average counts were plotted with GraphPad Prism 8. […]

[2] = test system: GR target genes GILZ, PER1, KLF9, SGK1; assay: RT-qPCR of GR target genes after time-dependent AR degrader treatment; conditions: LNCaP and CWR22PC cells; 100 nM degrader; 30 nM dexamethasone; 0, 6, 10, 13, 15 days
Experimental: as §2

PSA = PSA AlphaLISA assay of cell supernatant (PSA secretion); conditions: CWR22PC; CSS media; 21 days; 0.1 nM R1881 + 1 µM ARV-110, + 30 nM dexamethasone, + 0.5 µM compound 1
GR mRNA = assay: RT-qPCR of GR mRNA after time-dependent AR degrader treatment; conditions: 30 nM dexamethasone, up to 15 days
Experimental: 5 million of LNCaP and CWR22PC cells per dish were plated in five 15-cm dishes in 20 mL of RPMI-1640 media supplemented with 10% charcoal-stripped serum (CSS) and cultured at 37° C. for 24 hours. Cells were treated with 30 nM of dexamethasone and with 100 nM of ARD1 or ARD2 and maintained at 37° C. until harvest. On Day 0, 6, 10, 13, and 15, cells were trypsinized, cell pellets were washed with 1XPBS and then divided for mRNA and protein preparation.
as §2
2 million of LNCaP and CWR22PC cells per dish were plated in five 10-cm dishes in 10 mL of RPMI-1640 media supplemented with 10% charcoal-stripped serum (CSS) and cultured at 37° C. for 24 hours. […]

[3] = test system: AR and/or GR target genes KLK4, KLF9, FKBP5, PER1, SGK1; assay: Biomarker analysis by RT-qPCR, 48 hours; conditions: CWR22PC and 22Rv1 cells, 0.1 nM R1881, 1 µM degrader
Experimental: CWR22PC and 22RV1 cells were seeded at a density of 2 × 10^5 cells/well in 6-well plates in 2 mL of RPMI-1640 media supplemented with 10% charcoal-stripped serum (CSS). Cells were treated with 100 pM R1881, 30 nM dexamethasone, 0.5 µM compound 1, 1 µM of ARD1 or ARD2, or combinations thereof as indicated and maintained at 37° C. 48 hours later, media was removed, and cells were washed once with PBS and then harvested for mRNA analysis.
as §2
CWR22PC and 22Rv1 cells were seeded at a density of 2 × 10^5 cells/well in 6-well plates in 2 mL of RPMI-1640 media supplemented with 10% charcoal-stripped serum (CSS). […] 48 hours later, media was removed, and cells were washed once with PBS and then harvested for mRNA analysis.

CWR22PC cells = assay: Cell growth (cell number) of prostate cancer cells under long-term treatment; conditions: CWR22PC; CSS media; 21 days; 0.1 nM R1881 + 1 µM ARV-110, + 30 nM dexamethasone, + 0.5 µM compound 1
Experimental: as §1
The impact of ARD1 and ARD2 on the growth of prostate cancer cells was explored. CWR22PC cells were plated in charcoal-stripped serum (CSS) media and treated with vehicle or 0.1 nM R1881 (synthetic AR ligand) without or with 1 µM of ARD1 or ARD2. Media with treatments were replaced every 5-7 days and cells were maintained at 37° C. for 22 days. Supernatant of each group was harvested at day 22 to measure PSA secretion by PSA AlphaLISA assays.
as §1, with “24 hours later, cells were treated with 100 pM R1881, 30 nM dexamethasone, 0.5 µM compound 1, 1 µM of ARD1 or ARD2, or combinations thereof as indicated.” left out, “15” for “12”, “21” for “19”, “assay.” for “assay. Cell images were taken on Day 12 and 19 using Leica DMi8 microscope (LEICA MICROSYSTEMS, INC. IL) with a 10X magnification.”

N#Cc1ccc(O[C@H]2CC[C@H](NC(=O)c3ccc(N4CCC(CN5CCN(c6cc7c(cc6F)C(=O)N(C6CCC(=O)NC6=O)C7=O)CC5)CC4)nn3)CC2)cc1Cl (stereo partly drawn) [ARV-110, N-[trans-4-(3-chloro-4-cyanophenoxy)cyclohexyl]-6-[4-[[4-[2-(2,6-dioxo-3-piperidinyl)-6-fluoro-2,3-dihydro-1,3-dioxo-1H-isoindol-5-yl]-1-piperazinyl]methyl]-1-piperidinyl]-3-pyridazinecarboxamide]
R1881-induced target gene (biomarker) expression [1]: blunts | expression of GR target genes including GILZ, PER1, KLF9, and SGK1 [2]: most of the GR target genes are upregulated in a time dependent manner | R1881-induced PSA secretion (PSA): blunts | GR transcript levels (GR mRNA; CWR22PC cells (moderate GR pre-treatment), 100 nM degrader): minimal | upregulation of GR mRNA levels (GR mRNA; GR-negative LNCaP cells, 100 nM ARV-110): ~ 7 fold | expression induction by R1881 of AR target FKBP5 [3]: completely inhibited | expression induction by R1881 of AR target KLK4 [3]: completely inhibited | R1881-induced cell growth (CWR22PC cells): blunts
